Test results taken from BindingDB's records for doi:10.1016/s0960-894x(99)00301-7 (Nankai University, 1999).

target: T1, Acetolactate synthase, chloroplastic (Arabidopsis thaliana, UniProt P17597); experiment: ChEBML_27494
T1 sequence (P17597 whole entry): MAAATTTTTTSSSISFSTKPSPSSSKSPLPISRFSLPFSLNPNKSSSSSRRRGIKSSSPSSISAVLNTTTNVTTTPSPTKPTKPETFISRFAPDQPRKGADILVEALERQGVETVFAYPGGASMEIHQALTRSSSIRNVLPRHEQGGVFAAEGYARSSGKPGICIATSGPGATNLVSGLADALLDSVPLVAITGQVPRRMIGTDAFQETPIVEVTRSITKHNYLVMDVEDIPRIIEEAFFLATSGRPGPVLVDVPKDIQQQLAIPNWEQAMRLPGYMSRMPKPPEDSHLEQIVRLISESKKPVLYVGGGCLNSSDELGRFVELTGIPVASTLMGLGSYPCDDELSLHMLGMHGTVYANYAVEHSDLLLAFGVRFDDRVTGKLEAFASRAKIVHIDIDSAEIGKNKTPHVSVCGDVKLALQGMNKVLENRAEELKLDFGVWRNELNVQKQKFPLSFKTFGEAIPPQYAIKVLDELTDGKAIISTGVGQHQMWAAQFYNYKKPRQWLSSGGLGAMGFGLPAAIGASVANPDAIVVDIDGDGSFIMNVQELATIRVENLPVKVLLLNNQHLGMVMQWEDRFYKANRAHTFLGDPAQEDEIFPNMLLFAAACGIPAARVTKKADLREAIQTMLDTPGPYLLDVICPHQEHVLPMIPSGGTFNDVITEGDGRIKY
Source text: Inhibitory activity against Acetolactate synthase (ALS) enzyme by using the rape-root growth method

IC50 [µM]	Structure (SMILES)
182	O=C(OCn1ccc(=O)[nH]c1=O)c1ccc(Cl)cc1
152	Cc1ccc(NS(=O)(=O)c2ccc(F)cc2)nc1 [4-Fluoro-N-(5-methyl-pyridin-2-yl)-benzenesulfonamide]
287	Cc1ccnc(NS(=O)(=O)c2ccccc2[N+](=O)[O-])n1 [N-(4-Methyl-pyrimidin-2-yl)-2-nitro-benzenesulfonamide]
169	O=C(OCn1ccc(=O)[nH]c1=O)c1ccc(Br)cc1
> 261	O=C(OCn1ccc(=O)[nH]c1=O)c1c(Cl)cc(C(F)(F)F)cc1Cl
62	Cc1cccc(C(=O)OCn2ccc(=O)[nH]c2=O)c1
> 362	COc1ccc(C(=O)OCn2ccc(=O)[nH]c2=O)cc1
> 309	Cc1cnc(NS(=O)(=O)c2cc(Cl)ccc2Cl)s1 [2,5-Dichloro-N-(5-methyl-thiazol-2-yl)-benzenesulfonamide]
111	COc1cc(Cl)nc(NS(=O)(=O)c2ccc(F)cc2)n1 [N-(4-Chloro-6-methoxy-pyrimidin-2-yl)-4-fluoro-benzenesulfonamide]
> 344	O=C(OCn1ccc(=O)[nH]c1=O)c1ccc([N+](=O)[O-])cc1
208	O=C(OCn1ccc(=O)[nH]c1=O)c1ccccc1
212	O=C(OCn1ccc(=O)[nH]c1=O)c1ccc(F)cc1
> 269	O=C(OCn1ccc(=O)[nH]c1=O)c1ccc(I)cc1
> 362	COc1ccccc1C(=O)OCn1ccc(=O)[nH]c1=O
